In patent EP4722205A1, “HETEROCYCLIC COMPOUND AND NOXIOUS ARTHROPOD-CONTROLLING COMPOSITION CONTAINING SAME” (Sumitomo Chemical Company, Limited, priority 2023, dated 2024):

Columns and labels:
Format in all cases: in vivo
[1] = tested on: cotton aphids (Aphis gossypii); assay: Test Method 1: foliar spray on cucumber seedling infested with cotton aphids (Formulation example 1); details: 120 h, spray 10 mL/seedling, examined after 5 days, 25°C, read-out: controlling value
[2] = tested on: cotton worm (Spodoptera litura); assay: Test Method 3: sprayed cabbage leaves fed to second instar cotton worm; details: 120 h, second instar larvae, after 5 days, 25°C, read-out: mortality of insects
Experimental: (§1) The following tests in the test examples below were conducted at 25°C.
(§2) Cabbage (Brassicae oleracea) seedling (on the developmental stage of the second to third true leaf) is planted in a cup, and the diluted solutions are sprayed into the seedling at a ratio of 20 mL/seedling. Thereafter, the stem and leaf thereof are cut out and then is installed into a cup that is covered with filter paper on the bed of the cup. Five (5) cotton worm (Spodoptera litura) at the second instar larval stage are released into the cup. After 5 days, the number of the surviving insects is counted, and the mortality of insects is calculated by the following equation. [formula]

[3] = tested on: diamondback moth (Plutella xylostella); assay: Test Method 4: sprayed cabbage leaves fed to second instar diamondback moth; details: 120 h, second instar larvae, after 5 days, 25°C, read-out: mortality of insects
Experimental: Next, an efficacy of the present compound on controlling harmful arthropods is shown by Test examples. The following tests in the test examples below were conducted at 25°C.
Test compounds are made to a formulation according to a similar method to that described in the Formulation example 1, and thereto is added water containing 0.03 v/v% of Shindain (registered trademark) to prepare a diluted solution containing a prescribed concentration of the test compound.
as §2, with “diamondback moth (Plutella xylostella)” for “cotton worm (Spodoptera litura)”

[4] = tested on: cotton worm (Spodoptera litura); assay: Test Method 9: sprayed cabbage seedling, third instar cotton worm (Formulation example 5); details: 144 h, third instar larvae, after 6 days, 25°C, read-out: controlling value
Experimental: as §1
(§3) Cabbage (Brassicae oleracea) seedling (on the developmental stage of the third to fourth true leaf) is planted in a cup, and the diluted solutions are sprayed into the seedling at a ratio of 20 mL/seedling. Thereafter, ten (10) cotton worm (Spodoptera litura) at the third instar larval stage are released onto the seedling. After 6 days, the number of the surviving insects is counted, and the mortality of insects is calculated by the following equation. [formula]

[5] = tested on: diamondback moth (Plutella xylostella); assay: Test Method 10: sprayed cabbage seedling, third instar diamondback moth (Formulation example 5); details: 144 h, third instar larvae, after 6 days, 25°C, read-out: controlling value
Experimental: as §1
as §3, with “diamondback moth (Plutella xylostella)” for “cotton worm (Spodoptera litura)”

[6] = tested on: cotton aphids (Aphis gossypii); assay: Test Method 11: foliar spray on cucumber seedling infested with cotton aphids (Formulation example 5); details: 120 h, spray 10 mL/seedling, examined after 5 days, 25°C, read-out: controlling value
[7] = tested on: common house mosquitos (Culex pipiens pallens); assay: Test Method 12: mosquito larvae released into diluted solution; details: 24 h, last instar larvae, after 1 day, 25°C, read-out: controlling value
Experimental: as §1
Into the diluted solution, 30 common house mosquitos (Culex pipiens pallens) at the last instar larval stage are released, and after 1 day, the state of the house mosquito larvae is examined, and the mortality of insects is calculated by the following equation. [formula]

Compound | mortality at 500 ppm [1] | mortality at 500 ppm [2] | mortality at 500 ppm [3] | mortality at 50 ppm [4] | mortality at 200 ppm [4] | mortality at 50 ppm [5] | mortality at 200 ppm [5] | mortality at 50 ppm [6] | mortality at 200 ppm [6] | mortality at 3.5 ppm [7]
CCSc1c(C(=O)N(C)c2nc3ccc(F)cc3s2)nc2ccc(I)cn12 [compound 2] | ≥ 90% | ≥ 80% | ≥ 80% | – | – | – | – | – | – | –
CCSc1c(C(=O)N(C)c2nc3cc(F)ccc3s2)nc2ccc(I)cn12 [compound 3] | – | ≥ 80% | ≥ 80% | – | – | – | – | – | – | –
CCSc1c(C(=O)N(C)c2nc3cccc(F)c3o2)nc2ccc(I)cn12 [compound 18] | ≥ 90% | – | ≥ 80% | – | – | – | – | – | – | –
CCS(=O)(=O)c1c(C(=O)N(C)c2nc3cc(F)ccc3s2)nc2ccc(I)cn12 [compound 24] | ≥ 90% | ≥ 80% | ≥ 80% | ≥ 80% | ≥ 80% | ≥ 80% | ≥ 80% | ≥ 90% | ≥ 90% | –
CCS(=O)(=O)c1c(C(=O)N(C)c2nc3cccc(Cl)c3s2)nc2ccc(I)cn12 [compound 27] | ≥ 90% | ≥ 80% | – | ≥ 80% | ≥ 80% | – | – | ≥ 90% | ≥ 90% | –
CCS(=O)(=O)c1c(C(=O)N(C)c2nc3ccc(C)cc3s2)nc2ccc(I)cn12 [compound 32] | – | ≥ 80% | ≥ 80% | – | – | ≥ 80% | ≥ 80% | – | – | –
CCS(=O)(=O)c1c(C(=O)N(C)c2nc3cccc(F)c3o2)nc2ccc(I)cn12 [compound 39] | – | – | ≥ 80% | – | – | – | – | – | – | –
CCSc1cccnc1C(=O)N(C)c1nc2cc(C(F)(F)F)ccc2s1 [compound 49] | – | ≥ 80% | ≥ 80% | – | – | – | – | – | – | –
CCS(=O)(=O)c1cccnc1C(=O)N(C)c1nc2cc(C(F)(F)F)ccc2o1 [compound 54] | ≥ 90% | – | ≥ 80% | – | – | – | – | – | – | –
CCS(=O)(=O)c1cccnc1C(=O)N(C)c1nc2cc(C(F)(F)F)ccc2s1 [compound 55] | ≥ 90% | – | ≥ 80% | – | – | – | – | – | – | –
CCS(=O)(=O)c1cc(-c2ccc(C#N)cc2)cnc1C(=O)N(C)c1nc2cc(F)c(F)cc2s1 [compound 60] | – | – | ≥ 80% | – | – | – | – | – | – | –
CCSc1c(C(=O)N(C)c2nc3ccc(F)cc3n2C)nc2ccc(I)cn12 [compound 69] | ≥ 90% | – | ≥ 80% | – | – | – | – | ≥ 90% | ≥ 90% | –
CCS(=O)(=O)c1c(C(=O)N(C)c2nc3ccc(F)nc3s2)nc2ccc(I)cn12 [compound 75] | ≥ 90% | ≥ 80% | ≥ 80% | – | ≥ 80% | – | ≥ 80% | – | ≥ 90% | –
CCS(=O)(=O)c1c(C(=O)N(C)c2nc3ccc(F)cc3n2C)nc2ccc(I)cn12 [compound 78] | ≥ 90% | ≥ 80% | ≥ 80% | – | – | – | ≥ 80% | ≥ 90% | ≥ 90% | –
CCS(=O)(=O)c1c(C(=O)N(C)c2nc3cc(F)ccc3n2C)nc2ccc(I)cn12 [compound 79] | ≥ 90% | ≥ 80% | ≥ 80% | – | ≥ 80% | – | ≥ 80% | ≥ 90% | ≥ 90% | –
CCS(=O)(=O)c1c(C(=O)N(C)c2nc3cc(F)cc(F)c3s2)nc2ccc(I)cn12 [compound 80] | – | ≥ 80% | ≥ 80% | – | ≥ 80% | – | ≥ 80% | – | – | –
CCS(=O)(=O)c1c(C(=O)N(C)c2nc3cc(F)c(Cl)cc3s2)nc2ccc(I)cn12 [compound 81] | – | – | ≥ 80% | – | – | – | – | – | – | –

Compound | mortality at 500 ppm [1] | mortality at 500 ppm [2] | mortality at 500 ppm [3] | mortality at 50 ppm [4] | mortality at 200 ppm [4] | mortality at 50 ppm [5] | mortality at 200 ppm [5] | mortality at 50 ppm [6] | mortality at 200 ppm [6] | mortality at 3.5 ppm [7]
CCN(C(=O)c1nc2ccc(I)cn2c1S(=O)(=O)CC)c1nc2cc(F)c(F)cc2s1 [compound 96] | ≥ 90% | ≥ 80% | ≥ 80% | – | – | – | – | ≥ 90% | ≥ 90% | –
CCS(=O)(=O)c1c(C(=O)N(CC#N)c2nc3cc(F)c(F)cc3s2)nc2ccc(I)cn12 [compound 98] | – | – | ≥ 80% | – | – | – | – | – | – | –
C#CCN(C(=O)c1nc2ccc(I)cn2c1S(=O)(=O)CC)c1nc2cc(F)c(F)cc2s1 [compound 99] | – | – | ≥ 80% | – | – | – | – | – | – | –
CCS(=O)(=O)c1c(C(=O)N(C)c2nc3cc(F)c(F)cc3s2)nc2ccc(C3CC3)cn12 [compound 102] | ≥ 90% | ≥ 80% | ≥ 80% | ≥ 80% | ≥ 80% | ≥ 80% | ≥ 80% | ≥ 90% | ≥ 90% | –
CCS(=O)(=O)c1cc(-c2ccc(F)cn2)cnc1C(=O)N(C)c1nc2cc(F)c(F)cc2s1 [compound 110] | – | ≥ 80% | ≥ 80% | ≥ 80% | ≥ 80% | ≥ 80% | ≥ 80% | – | – | ≥ 90%
CCS(=O)(=O)c1cc(-n2cc(Cl)cn2)cnc1C(=O)N(C)c1nc2cc(F)c(F)cc2s1 [compound 112] | – | ≥ 80% | ≥ 80% | ≥ 80% | ≥ 80% | – | ≥ 80% | – | – | –
CCS(=O)(=O)c1cccnc1C(=O)N(C)c1nc2cc(F)c(F)cc2s1 [compound 114] | – | ≥ 80% | ≥ 80% | – | – | – | – | – | – | –
CCS(=O)(=O)c1cc(C(F)(F)F)ccc1C(=O)N(C)c1nc2cc(F)c(F)cc2s1 [compound 120] | – | ≥ 80% | ≥ 80% | ≥ 80% | ≥ 80% | ≥ 80% | ≥ 80% | – | – | –
CCCOc1cnc(C(=O)N(C)c2nc3cc(F)c(F)cc3s2)c(S(=O)(=O)CC)c1 [compound 126] | – | ≥ 80% | ≥ 80% | ≥ 80% | ≥ 80% | – | ≥ 80% | – | ≥ 90% | –
CCS(=O)(=O)c1cc(OC(C)(C)C)cnc1C(=O)N(C)c1nc2cc(F)c(F)cc2s1 [compound 128] | ≥ 90% | ≥ 80% | ≥ 80% | ≥ 80% | ≥ 80% | ≥ 80% | ≥ 80% | – | ≥ 90% | –
CCS(=O)(=O)c1ccc(NC(=O)OC(C)(C)C)nc1C(=O)N(C)c1nc2cc(F)c(F)cc2s1 [compound 129] | – | ≥ 80% | ≥ 80% | – | ≥ 80% | – | ≥ 80% | – | – | ≥ 90%
CCS(=O)(=O)c1ccc(-c2ccccn2)nc1C(=O)N(C)c1nc2cc(F)c(F)cc2s1 [compound 133] | – | ≥ 80% | ≥ 80% | ≥ 80% | ≥ 80% | – | ≥ 80% | – | ≥ 90% | –
CCS(=O)(=O)c1ccc(NCCCN(C)C)nc1C(=O)N(C)c1nc2cc(F)c(F)cc2s1 [compound 136] | – | – | ≥ 80% | – | – | – | ≥ 80% | – | – | ≥ 90%
CCS(=O)(=O)c1ccc(Nc2ccc(C)cc2)nc1C(=O)N(C)c1nc2cc(F)c(F)cc2s1 [compound 137] | – | – | ≥ 80% | – | – | – | – | – | – | –
CCS(=O)(=O)c1c(C(=O)N(C)c2nc3cc(F)c(F)cc3s2)nc(Br)n1C [compound 140] | – | – | ≥ 80% | – | – | – | ≥ 80% | – | – | –
CCS(=O)(=O)c1c(C(=O)N(C)c2nc3cc(F)c(F)cc3s2)nc(-c2cnn(C(F)F)c2)n1C [compound 143] | – | ≥ 80% | ≥ 80% | – | – | – | – | – | – | –
CCS(=O)(=O)c1c(C(=O)N(C)c2nc3cc(Cl)c(F)cc3s2)nn(C)c1C1CC1 [compound 145] | – | – | ≥ 80% | – | – | – | ≥ 80% | – | – | –
